From patent EP4692096A1, “MACROCYCLIC COMPOUND, AND PHARMACEUTICAL COMPOSITION AND USE THEREOF” (Prime Gene Therapeutics Co., Ltd., priority 2023, dated 2024)
Read-outs that look alike come from different tables or passages of the source. One block for each compound: values may come before it.

Key:
[1] = Blood-brain penetration test in rats; type: in vivo, Male SD rats; settings: for Kp at 0.5 h / Kp at 5 min / concentration at 0.5 h: male, SD, rat; for Kp at 0.5 h / Kp at 5 min: brain/plasma; for Kp at 5 min: IV 2 mg/kg, 5 min after administration; for concentration at 0.5 h: 0.5 h after oral administration (PO, 10 mg/kg)
Method: Male SD rats were divided into groups of three animals each, which were administered the compounds to be tested either by single oral gavage (PO, 10 mg/kg) or by single intravenous injection (IV, 2 mg/kg). Animals were fasted overnight prior to dosing, beginning 10 hours before administration and continuing until 4 hours after dosing. Rats were sacrificed at 0.5 hours after PO administration (or 5 min after IV administration). Blood and brain tissues were collected. The samples were centrifuged at 4000 rpm for 5 min at 4 °C, and plasma was transferred to centrifuge tubes and stored at -80°C until analysis. Plasma samples were processed by protein precipitation extraction, and the extracts were analyzed by LC/MS/MS.

TYK2-JH2 = target: T1, TYK2-JH2 (Homo sapiens, UniProt P29597); assay: Enzymatic activity (IC50) assay against TYK2-JH2 (fluorescence polarisation, JH2 probe 1); type: binding
T1 construct: Enzymatic activity(IC50) assay of compounds against TYK2-JH2 and JAK1-JH2
T1 sequence (P29597 589-875 limits assumed): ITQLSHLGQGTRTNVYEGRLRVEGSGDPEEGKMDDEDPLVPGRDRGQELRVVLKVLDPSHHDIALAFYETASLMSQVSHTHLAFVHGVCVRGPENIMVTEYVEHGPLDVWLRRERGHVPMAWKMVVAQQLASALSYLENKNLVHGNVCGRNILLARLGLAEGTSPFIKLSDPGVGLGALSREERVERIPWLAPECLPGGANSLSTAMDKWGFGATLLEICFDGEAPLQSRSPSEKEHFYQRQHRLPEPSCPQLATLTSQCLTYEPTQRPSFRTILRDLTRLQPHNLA
Method: (§1) Using an Echo liquid handler, 50 nL of the compound to be tested was transferred into a 384-well reaction plate, in duplicate wells for each compound. The plate was subjected to centrifugation at 1000 rpm for 1 min and the final DMSO concentration was 0.5%. Subsequently, 5 µL of TYK2 (or JAK1) was added to the plate, centrifuged at 1000 rpm for 1 min, and incubated at 25 °C for 10 min. Then, 5 µL of JH2 probe 1 was added to the plate, centrifuged at 1000 rpm for 1 min, and incubation at 25 °C for 60 min. FP 520/48 signals were measured using a BMG high-throughput multifunctional plate reader. Data from the TYK2-JH2 assay were analyzed using GraphPad Prism 8 software. […] After calculating inhibition rates, IC50 values (half-maximal inhibitory concentrations) of the control compounds and the compounds to be tested were determined using nonlinear regression fitting of software. [formula] • Datapositive control: mean value of positive control wells • Datanegative control: mean value of negative control wells

JAK1-JH2 = target: T2, JAK1-JH2 (Homo sapiens, UniProt P23458); assay: Enzymatic activity (IC50) assay against JAK1-JH2 (fluorescence polarisation, JH2 probe 1); type: binding
T2 construct: Enzymatic activity(IC50) assay of compounds against TYK2-JH2 and JAK1-JH2
T2 sequence (P23458 583-855 limits assumed): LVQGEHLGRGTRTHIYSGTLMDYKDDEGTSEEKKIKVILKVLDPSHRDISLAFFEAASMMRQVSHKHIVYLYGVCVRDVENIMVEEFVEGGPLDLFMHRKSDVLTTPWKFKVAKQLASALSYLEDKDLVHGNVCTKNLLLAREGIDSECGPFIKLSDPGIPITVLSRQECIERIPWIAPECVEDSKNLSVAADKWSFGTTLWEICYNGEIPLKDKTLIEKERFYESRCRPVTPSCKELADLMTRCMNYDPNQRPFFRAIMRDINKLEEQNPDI
Method: as §1

[2] = Pharmacokinetic experiment in rats; type: in vivo, Male SD rats; settings: for Vd: plasma, iv, 2 mg/kg
Method: Male SD rats were divided into groups of three animals each, which were administered the compound of Example 2 by intravenous injection (2 mg/kg), administered the compound of Example 2 by single oral gavage (10 mg/kg), and administered a control compound by single oral gavage (10 mg/kg), respectively. Animals were fasted overnight prior to dosing, beginning 10 hours before administration and continuing until 4 hours after dosing. For the intravenous group, blood samples were collected at 0.0833, 0.25, 0.5, 1, 2, 4, 6, 8, and 24 h post-dose. For the oral administration groups, blood samples were collected at 0.25, 0.5, 1, 2, 4, 6, 8, and 24 h post-dose. Blood samples (0.3 mL) were collected from the retro-orbital venous plexus under isoflurane anesthesia into heparinized tubes. The samples were centrifuged at 4000 rpm for 5 min at 4 °C, and plasma was transferred to centrifuge tubes and stored at -80°C until analysis. Plasma samples were processed by protein precipitation extraction, and the extracts were analyzed by LC/MS/MS. Pharmacokinetic results are shown in Tables 2 and 3: Table 2: Pharmacokinetic parameters of the compound in Example 2 in rat plasma after intravenous administration

[3] = read-out: brain/blood concentration ratio
[4] = male, SD, rat plasma, intravenous injection 2 mg/kg
[5] = male, SD, rat plasma, single oral gavage 10 mg/kg

SMILES: CNc1cc2nn3c(cnc13)C(=O)O[C@H](C)COCc1ccc(OC)c(c1)N2 [Example 1, (7R,E)-3^6-methoxy-7-methyl-1^8-(methylamino)-5,8-dioxa-2-aza-1(6,3)-imidazo[1,2-b]pyridazin-3(1,3)-benzocyclononan-9-one]
IC50 (TYK2-JH2): < 5 nM | Kp at 5 min [1, 3]: 3.15 | IC50 (JAK1-JH2): > 5000 nM

SMILES: CNc1cc2nc3c(cnn13)C(=O)OCC(C)OCc1ccc(OC)c(c1)N2 [Example 4, (S, 1^3E,1^4E)-3^6-methoxy-6-methyl-1^7-(methylamino)-5,8-dioxa-2-azazo-1(5,3)-pyrazolo[1,5-a]pyrimidine-3(1,3)-benzheterocyclononan-9-one]
IC50 (TYK2-JH2): < 20 nM | IC50 (JAK1-JH2): > 5000 nM

SMILES: CNc1cc2nc3c(cnn13)C(=O)O[C@@H]1CCC[C@H]1OCc1cc(c3nnn(C)c3c1)N2 [Example 6, (1^3E,1^4E,6^1R,6^2R)-3^1-methyl-1^7-(methylamino)-3^1H-5,7-dioxa-2-azazo-1(5,3)-pyrazolo[1,5-a]pyrimidine-3(4,6)-benzo[d][1,2,3]triazole-6(1,2)-cyclopentane cyclooctafuran-8-one]
IC50 (TYK2-JH2): < 10 nM | Kp at 5 min [1, 3]: 0.322

SMILES: CNc1cc2nc3c(cnn13)C(=O)O[C@H](C)COCc1cc(c(=O)n(C)c1)N2 [Example 8, (R,1^3E,1^4E,3^3E)-3^1,7-dimethyl-1^7-(methylamino)-3^1,3^2-dihydro-5,8-dioxa-2-azazo-1(5, 3)-pyrazolo[1,5-a]pyrimidine-3 (3,5)-pyridine heterocyclononane-3^2,9-dione]
IC50 (TYK2-JH2): < 5 nM | IC50 (JAK1-JH2): > 5000 nM

SMILES: CNc1cc2nn3c(cnc13)C(=O)N[C@@H]1CCC[C@H]1OCc1cc(c3nnn(C)c3c1)N2 [control compound A, reference compound]
IC50 (TYK2-JH2): < 5 nM | brain penetration (in words) [1]: very low brain penetration | Kp at 5 min [1, 3]: 0.0879 | IC50 (JAK1-JH2): > 1000 nM | AUC(0-inf) [2, 5]: 735 ng·h/mL | AUC(0-t) [2, 5]: 592 ng·h/mL | Cmax [2, 5]: 126 ng/mL | MRT [2, 5]: 3.16 h | Tmax [2, 5]: 1.83 h | half-life [2, 5]: 3.07 h

Further lines, with some results ahead:

brain penetration (in words) [1]: very low brain penetration | Kp at 0.5 h ([1]; PO 10 mg/kg, 0.5 hours after administration, read-out: brain/blood concentration ratio): 0.032
SMILES: [2H]C([2H])([2H])NC(=O)c1nnc(NC(=O)C2CC2)cc1Nc1cccc(-c2ncn(C)n2)c1OC [Deucravacitinib, reference compound]

IC50 (TYK2-JH2): < 5 nM | brain penetration (in words) [1]: remarkably high brain penetration | brain/blood concentration ratio ([1]; PO 10 mg/kg, 0.5 hours after administration): 508% | concentration at 0.5 h ([1]; brain, read-out: concentration in brain tissue): 2620 ng/mL | Kp at 0.5 h ([1]; 10 mg/kg, 0.5 hours post oral dosing, printed as plain ratio, read-out: brain-blood concentration ratio): 5.08 | concentration at 0.5 h ([1]; plasma, read-out: concentration in plamsa): 515 ng/mL | IC50 (JAK1-JH2): > 5000 nM | Vd ([2]; male, SD, rat, rat plasma, intravenous injection 2 mg/kg, read-out: Vss): 1.28 L/kg | Vd ([2]; male, SD, rat, rat plasma, intravenous injection 2 mg/kg, read-out: Vz): 1.33 L/kg | AUC(0-inf) [2, 4]: 2030 ng·h/mL | AUC(0-t) [2, 4]: 2020 ng·h/mL | C0 [2, 4]: 2260 ng/mL | MRT [2, 4]: 1.28 h | clearance [2, 4]: 16.7 mL/min/kg | half-life [2, 4]: 0.93 h | AUC(0-inf) [2, 5]: 5780 ng·h/mL | AUC(0-t) [2, 5]: 5770 ng·h/mL | Cmax [2, 5]: 2460 ng/mL | MRT [2, 5]: 1.97 h | Tmax [2, 5]: 0.5 h | half-life [2, 5]: 2.46 h | Bioavialibility ([2]; rat, oral 10 mg/kg vs intravenous 2 mg/kg): 57.1%
SMILES: CNc1cc2nc3c(cnn13)C(=O)OC(C)COCc1ccc(OC)c(c1)N2 [Example 2, (R,1^3E,1^4E)-3^6-methoxy-7-methyl-1^7-(methylamino)-5,8-dioxa-2-aza-1(5,3)-pyrazolo[1,5-a]pyrimidin-3(1,3)-benzheterocyclononan-9-one]
oral drug exposure (in words) ([2]; rat, single oral gavage 10 mg/kg): much better than that of the control compounds A and B

IC50 (TYK2-JH2): < 20 nM | IC50 (JAK1-JH2): > 5000 nM
SMILES: CNc1cc2nn3c(cnc13)C(=O)OC[C@H](C)OCc1ccc(OC)c(c1)N2 [Example 3, (6S, E)-3^6-methoxy-6-methyl-1^8-(methylamino)-5,8-dioxa-2-azazo-1(6,3)-imidazo[1,2-b]pyridazine-3(1,3)-benzheterocyclononan-9-one]

IC50 (TYK2-JH2): < 5 nM | Kp at 5 min [1, 3]: 1.21 | IC50 (JAK1-JH2): > 5000 nM
SMILES: CNc1cc2nn3c(cnc13)C(=O)O[C@@H]1CCC[C@@H]1OCc1cc(c3nnn(C)c3c1)N2 [Example 5, (6^1R,6^2R,E)-3^1-methyl-1^8-(methylamino)-3^1H-5,7-dioxa-2-azazo-1(6,3)-imidazo[1,2-b]pyridazine-3(4,6)-benzo[d][1,2,3]triazole-6(1,2)-cyclopentane cyclooctafuran-8-one]

IC50 (TYK2-JH2): < 5 nM | IC50 (JAK1-JH2): > 5000 nM
SMILES: CNc1cc2nn3c(cnc13)C(=O)O[C@H](C)COCc1cc(c(=O)n(C)c1)N2 [Example 7, (1^5E,3^3E,7R)-3^1,7-dimethyl-1^8-(methylamino)-3^1,3^2-dihydro-5,8-dioxa-2-azazo-1(6,3)-imidazo[1,2-b]pyridazine-3(3,5)-pyridine heterocyclononane-3^2,9-dione]

Kp at 5 min [1, 3]: 0.228 | AUC(0-inf) [2, 5]: 332 ng·h/mL | AUC(0-t) [2, 5]: 327 ng·h/mL | Cmax [2, 5]: 192 ng/mL | MRT [2, 5]: 1.63 h | Tmax [2, 5]: 0.5 h | half-life [2, 5]: 1.08 h
SMILES: CNc1cc2nc3c(cnn13)C(=O)N[C@H](C)COCc1ccc(OC)c(c1)N2 [control compound B, reference compound]
